From BindingDB's records for patent US11220486 (LA JOLLA INSTITUTE OF ALLERGY & IMMUNOLOGY; SANFORD BURNHAM …, 2022) come the findings set out here.

The target in the assay is T1, Low molecular weight phosphotyrosine protein phosphatase (Homo sapiens, UniProt P24666).
T1 sequence (P24666 whole entry): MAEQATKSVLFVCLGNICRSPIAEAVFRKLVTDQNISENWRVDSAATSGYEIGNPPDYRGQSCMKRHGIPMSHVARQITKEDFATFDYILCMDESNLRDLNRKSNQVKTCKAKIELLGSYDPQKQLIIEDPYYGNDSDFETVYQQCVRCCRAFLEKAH
The assay can be described thus: LMPTP Primary Screening Protocol. As to the method: A listing of materials is provided: Item, source, catalog no. […] Prepare Reagents as described in section F. Recipe. 2. Using LabCyte Echo, transfer 60 nL from 2 mM test compound source plate into assay plate Col. 5-48 (final concentration of test compounds is 20 μM). 60 nL of DMSO should be transferred to col. 1-4 for positive and negative control wells. 3. Spin plates at 1000 rpm for 1 minute in centrifuge. 4. Using the Beckman Coulter Bioraptr, add 3 μL/well of control buffer to columns 1 and 2. 5. Using the Bioraptr, add 3 μL/well of enzyme solution to col. 3-48. 6. Using the Bioraptr, add 3 μL/well of substrate solution to col. 1-48. 7. Spin plates at 1000 rpm for 1 minute in centrifuge. 8. Incubate plates in the dark at room temperature for 50 minutes. 9. Read plates on PerkinElmer Viewlux using a FI protocol.

As for `CC(C)(C)OC(=O)C1(c2cc(NCCCC3CCCNC3)c3ccccc3n2)C=c2ccccc2=N1` (stereo unspecified) [US11220486, Compound I98], the IC50 (usually the concentration that gives 50% inhibition) is > 5 µM.
